Results published in patent US20230018245A1, “Skin Whitening Composition Containing Dihydro-5-Methylfuran-2(3h)-One Derivative” (Epi Biotech Co., Ltd., priority 2019, published 2023).
One block for each compound: values may come before it. No end group written: not given here.

Key:
B16 melanoma cells [1] = experiment: Cytotoxicity of hydroquinone and Compound 2 by MTT assay (Example 4); assay type: cell-based; conditions: treated alone, concentration of 10 μM or less; α-MSH 100 nM 76 hours; absorbance 590 nm; FIG. 6
Method: Using B16 melanoma cells, cytotoxicity was measured by MTT assay when hydroquinone and Compound 2 were treated alone or in combination.
200 μL of B16 melanoma cells were aliquoted in a 96-well plate to 2.7×10^3 cells/well, and then cultured at 37° C., 5% CO2 incubator for 24 hours. B16 melanoma cells were treated with hydroquinone and/or Compound 2 for 2 hours under the same conditions as in Example 3.
Thereafter, α-MSH was treated at a concentration of 100 nM for 76 hours, and absorbance was measured at 590 nm by MTT assay, and the results are shown in FIG. 6.

B16 melanoma cells [2] = experiment: Melanogenesis inhibition upon single or combination treatment with hydroquinone (Example 3); assay type: cell-based
Method: Using B16 melanoma cells, melanogenesis inhibition and melanosome degradation effect were confirmed upon single or combination treatment with hydroquinone and the compound of the present invention.
B16 melanoma cells were treated alone or in combination with hydroquinone and/or a compound of the present invention for 2 hours under the following conditions.
(i) Compound 2: 1, 3, 10 μM single administration
(ii) Hydroquinone: 1, 3, 10 μM single administration
(iii) Compound 2 (1, 3, 10 μM)+Hydroquinone (5 μM)
Thereafter, α-MSH was treated at a concentration of 100 nM for 76 hours.
After 72 hours, absorbance was measured at 405 nm to quantify the amount of melanin released into the medium, and the inhibition rate was calculated and shown in FIG. 5.

[3] = biological target: T1, tyrosinase extracted from B16 melanoma cells (Mus musculus, UniProt P11344); experiment: Inhibition of tyrosinase activity, L-DOPA oxidation (Example 5); assay type: biochemical; conditions: tyrosinase and L-DOPA, 37° C., 1 hour, absorbance 475 nm; vs positive control treated with tyrosinase and L-DOPA; FIG. 7
T1 construct: tyrosinase was extracted from B16 melanoma cells and used as an enzyme source; endogenous in cells; host or cells: B16 melanoma cells stimulated with alpha-MSH; cell extract
T1 sequence (P11344 19-533): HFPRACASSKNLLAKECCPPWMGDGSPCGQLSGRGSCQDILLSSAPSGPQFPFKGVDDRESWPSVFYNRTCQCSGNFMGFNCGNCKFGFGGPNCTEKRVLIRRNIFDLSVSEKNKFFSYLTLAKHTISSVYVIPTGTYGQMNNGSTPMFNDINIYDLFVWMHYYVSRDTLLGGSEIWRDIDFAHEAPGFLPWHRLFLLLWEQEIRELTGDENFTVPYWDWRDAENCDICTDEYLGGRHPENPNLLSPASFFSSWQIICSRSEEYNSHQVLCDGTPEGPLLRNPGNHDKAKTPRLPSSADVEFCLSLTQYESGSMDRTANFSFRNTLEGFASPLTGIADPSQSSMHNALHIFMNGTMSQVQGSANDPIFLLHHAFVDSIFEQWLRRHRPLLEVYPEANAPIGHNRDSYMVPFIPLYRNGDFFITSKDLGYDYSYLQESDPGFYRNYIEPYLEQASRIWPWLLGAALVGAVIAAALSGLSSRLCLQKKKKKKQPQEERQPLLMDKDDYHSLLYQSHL
Method: B16 melanoma cells were aliquoted in a 100 mm culture dish at 2×10^5 cells/dish. After 24 hours, the medium from the 100 mm culture dish was removed and treated with DMEM medium containing 10% FBS and a stimulant (α-MSH). After 48 hours, tyrosinase was extracted from B16 melanoma cells and used as an enzyme source. Using the principle that tyrosinase oxidizes L-DOPA to DOPA chrome and DOPA chrome has absorbance at 475 nm, tyrosinase and L-DOPA were incubated at 37° C. for 1 hour and absorbance was measured at 475 nm at 2 minute intervals, so that the production amount of DOPA chrome according to time was measured. The amount of changing 1 nmole of L-DOPA per minute to DOPA chrome was defined as the amount of tyrosinase activity. The tyrosinase inhibitory effect of Compound 2 was evaluated by comparing the group treated with tyrosinase and L-DOPA in combination as a positive control and the group treated with tyrosinase, L-DOPA and Compound 2 in combination.

IC50 (B16 melanoma cells [2]; Mus musculus, B16, single treatment, based on the amount of melanogenesis in the positive control group (α-MSH 100 nM)): 7.7 µM
Compound: Oc1ccc(O)cc1 [hydroquinone, Benzene-1,4-diol]
cell viability / cytotoxicity (MTT assay) (B16 melanoma cells [1]): no cytotoxicity
melanogenesis inhibition and melanosome degradation effect (B16 melanoma cells [2]; treated alone, 1, 3, 10 μM, α-MSH 100 nM, FIG. 5): dose-dependently increased

inhibition of tyrosinase activity [3]: inhibited the activity of tyrosinase
Compound: OC[C@H]1O[C@@H](Oc2ccc(O)cc2)[C@H](O)[C@@H](O)[C@@H]1O [Arbutin]

Compound: α-melanocyte stimulating hormone (SYSMEHFRWGKPV; ends and bridges not checked; UniProt P01189 138-150, looked up) [α-MSH, agonist that stimulates melanogenesis; used as the stimulant / positive control]
increase of the amount of melanin (B16 melanoma cells [2]; positive control treated with α-MSH 100 nM): 16.5 times
